Assay results taken from paper PMC11284896 (Journal of Translational Internal Medicine, 2024).

Biological target: T1, ABCG2 (Homo sapiens, UniProt Q9UNQ0)
T1 sequence (Q9UNQ0 1-655): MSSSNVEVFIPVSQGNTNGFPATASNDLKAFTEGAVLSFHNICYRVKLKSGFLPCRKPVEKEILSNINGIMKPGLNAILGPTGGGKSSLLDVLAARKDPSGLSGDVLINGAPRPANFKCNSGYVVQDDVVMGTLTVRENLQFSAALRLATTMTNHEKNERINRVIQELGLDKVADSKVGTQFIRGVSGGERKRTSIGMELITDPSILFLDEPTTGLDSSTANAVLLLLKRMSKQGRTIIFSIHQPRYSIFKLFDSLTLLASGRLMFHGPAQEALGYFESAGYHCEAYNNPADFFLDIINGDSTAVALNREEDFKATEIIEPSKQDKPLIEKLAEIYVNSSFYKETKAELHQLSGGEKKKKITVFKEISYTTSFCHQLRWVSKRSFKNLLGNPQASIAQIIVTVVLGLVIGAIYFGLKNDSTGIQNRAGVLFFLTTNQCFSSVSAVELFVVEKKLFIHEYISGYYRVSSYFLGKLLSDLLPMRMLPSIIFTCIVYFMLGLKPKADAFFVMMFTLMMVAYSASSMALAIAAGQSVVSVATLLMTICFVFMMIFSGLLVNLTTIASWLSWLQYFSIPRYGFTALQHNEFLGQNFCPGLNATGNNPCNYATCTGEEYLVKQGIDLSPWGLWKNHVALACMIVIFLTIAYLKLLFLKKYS

O=C1c2c(O)ccc(O)c2C(=O)c2c(NCCNCCO)ccc(NCCNCCO)c21 [mitoxantrone]
radiolabelled substrate efflux and accumulation in ABCG2-overexpressing NCI-H460: the efflux of [^3H]-mitoxantrone from cells overexpressed ABCG2 transporter was considerably diminished in the presence of RN486
